# Data: US20180256673A1, “METHODS FOR TREATING FUNGAL INFECTIONS” (priority 2015, published 2018)
# Starred links: 1 amine or outer side, 2 acyl side, 3 side chain; linkers in the order of their positions; H or OH if unused. Positions of bridges follow the written chain, without caps; N, C: chain ends. Non-standard residues stand in square brackets, D forms with d. Residues, ends and D or L forms follow the SMILES beside them. *: point of attachment. hTyr(3S-OH,4S-OH,3'-OSO3H) = N[C@H](C(=O)O)[C@H](O)[C@@H](O)c1ccc(O)c(OS(=O)(=O)O)c1; Orn(4R-OH,5R-OH) = O=C([C@H](C[C@@H](O)[C@@H](O)N[*:3])N[*:1])[*:2]; Pro(3S-OH,4S-Me) = C[C@H]1CN[C@H](C(=O)O)[C@H]1O; X1 = CCCCCOc1ccc(-c2cc(-c3ccc(C(=O)*)cc3)no2)cc1; Gln(3R-OH) = NC(=O)C[C@@H](O)[C@H](N)C(=O)O; Hyp = O=C(O)[C@@H]1C[C@@H](O)CN1
# Tests used:
# Candida dubliniensis = assay: Broth microdilution of invasive fungal isolates (CLSI M27-A3/M38-A2); assay type: cell-based
# [1] = test system: C. tropicalis vaginal isolates; assay: Susceptibility testing of VVC clinical isolates at pH 7 and 4 (CLSI M27-A3); assay type: cell-based; conditions: Candida tropicalis
# [2] = test system: C. parapsilosis vaginal isolates; assay: as above; assay type: cell-based, Candida parapsilosis
# Candida orthopsilosis = assay: Broth microdilution of invasive fungal isolates (CLSI M27-A3/M38-A2); assay type: cell-based
# Candida tropicalis = assay: as above; assay type: cell-based
# Aspergillus fumigatus = assay: Broth microdilution of invasive fungal isolates (CLSI M27-A3/M38-A2), MEC; assay type: cell-based; conditions: 56 isolates
# [3] = test system: Cryptococcus neoformans var. grubii; assay: Broth microdilution of invasive fungal isolates (CLSI M27-A3/M38-A2); assay type: cell-based
# Candida krusei = assay: as above; assay type: cell-based
# [4] = test system: C. albicans vaginal isolates; assay: Susceptibility testing of VVC clinical isolates at pH 7 and 4 (CLSI M27-A3); assay type: cell-based, Candida albicans; conditions: Candida albicans
# Candida albicans = assay: Broth microdilution of invasive fungal isolates (CLSI M27-A3/M38-A2); assay type: cell-based
smiles,measurement,setting,value
"CCCCCOc1ccc(-c2cc(-c3ccc(C(=O)N[C@H]4C[C@@H](O)[C@@H](O)NC(=O)[C@@H]5[C@@H](O)[C@@H](C)CN5C(=O)[C@H]([C@H](O)CC(N)=O)NC(=O)[C@H]([C@H](O)[C@@H](O)c5ccc(O)c(OS(=O)(=O)O)c5)NC(=O)[C@@H]5C[C@@H](O)CN5C(=O)[C@H]([C@@H](C)O)NC4=O)cc3)no2)cc1 [MCF, micafungin] (X1-[Orn(4R-OH,5R-OH)]T[Hyp][hTyr(3S-OH,4S-OH,3'-OSO3H)][Gln(3R-OH)][Pro(3S-OH,4S-Me)]; lactam 1-C)",Cumulative % of isolates inhibited at MIC 0.015 μg/mL,Candida dubliniensis; 11 isolates,(27.3) %
same,Cumulative % of isolates inhibited at MIC 0.03 μg/mL,Candida dubliniensis; 11 isolates,(100.0) %
same,Number of isolates inhibited at MIC 0.015 μg/mL,Candida dubliniensis; 11 isolates,3
same,Number of isolates inhibited at MIC 0.03 μg/mL,Candida dubliniensis; 11 isolates,8
same,MIC50,Candida dubliniensis; Candida dubliniensis,0.03 µg/mL
same,MIC90,Candida dubliniensis; Candida dubliniensis,0.03 µg/mL
same,MIC90,"[1]; 24 h, pH 4",0.06 µg/mL
same,MIC90,"[1]; 24 h, pH 7",0.016 µg/mL
same,MIC90,"[1]; 48 h, pH 4",0.06 µg/mL
same,MIC90,"[1]; 48 h, pH 7",0.03 µg/mL
same,MIC90,"[2]; 24 h, pH 4",0.5 µg/mL
same,MIC90,"[2]; 24 h, pH 7",1 µg/mL
same,MIC90,"[2]; 48 h, pH 4",1 µg/mL
same,MIC90,"[2]; 48 h, pH 7",2 µg/mL
same,Cumulative % of isolates inhibited at MIC 0.12 μg/mL,Candida orthopsilosis; 10 isolates,(20.0) %
same,Cumulative % of isolates inhibited at MIC 0.25 μg/mL,Candida orthopsilosis; 10 isolates,(40.0) %
same,Cumulative % of isolates inhibited at MIC 0.5 μg/mL,Candida orthopsilosis; 10 isolates,(70.0) %
same,Cumulative % of isolates inhibited at MIC 1 μg/mL,Candida orthopsilosis; 10 isolates,(100.0) %
same,Number of isolates inhibited at MIC 0.12 μg/mL,Candida orthopsilosis; 10 isolates,2
same,Number of isolates inhibited at MIC 0.25 μg/mL,Candida orthopsilosis; 10 isolates,2
same,Number of isolates inhibited at MIC 0.5 μg/mL,Candida orthopsilosis; 10 isolates,3
same,Number of isolates inhibited at MIC 1 μg/mL,Candida orthopsilosis; 10 isolates,3
same,MIC50,Candida orthopsilosis; Lodderomyces orthopsilosis,0.5 µg/mL
same,MIC90,Candida orthopsilosis; Lodderomyces orthopsilosis,1 µg/mL
same,Cumulative % of isolates inhibited at MIC 0.015 μg/mL,Candida tropicalis; 51 isolates,(31.4) %
same,Cumulative % of isolates inhibited at MIC 0.03 μg/mL,Candida tropicalis; 51 isolates,(84.3) %
same,Cumulative % of isolates inhibited at MIC 0.06 μg/mL,Candida tropicalis; 51 isolates,(100.0) %
same,Cumulative % of isolates inhibited at MIC ≤0.008 μg/mL,Candida tropicalis; 51 isolates,(2.0) %
same,Number of isolates inhibited at MIC 0.015 μg/mL,Candida tropicalis; 51 isolates,15
same,Number of isolates inhibited at MIC 0.03 μg/mL,Candida tropicalis; 51 isolates,27
same,Number of isolates inhibited at MIC 0.06 μg/mL,Candida tropicalis; 51 isolates,8
same,Number of isolates inhibited at MIC ≤0.008 μg/mL,Candida tropicalis; 51 isolates,1
same,MIC50,Candida tropicalis; Candida tropicalis,0.03 µg/mL
same,MIC90,Candida tropicalis; Candida tropicalis,0.06 µg/mL
same,Cumulative % of isolates inhibited at MEC 0.015 μg/mL,Aspergillus fumigatus,(96.4) %
same,Cumulative % of isolates inhibited at MEC 0.03 μg/mL,Aspergillus fumigatus,(100.0) %
same,Cumulative % of isolates inhibited at MEC ≤0.008 μg/mL,Aspergillus fumigatus,(28.6) %
same,MEC50,Aspergillus fumigatus,.015 µg/mL
same,MEC90,Aspergillus fumigatus,.015 µg/mL
same,Number of isolates inhibited at MEC 0.015 μg/mL,Aspergillus fumigatus,38
same,Number of isolates inhibited at MEC 0.03 μg/mL,Aspergillus fumigatus,2
same,Number of isolates inhibited at MEC ≤0.008 μg/mL,Aspergillus fumigatus,16
same,Cumulative % of isolates inhibited at MIC >8 μg/mL,[3]; 19 isolates,(100.0) %
same,Number of isolates inhibited at MIC >8 μg/mL,[3]; 19 isolates,19
same,MIC50,[3]; Cryptococcus neoformans,8 µg/mL
same,MIC90,[3]; Cryptococcus neoformans,8 µg/mL
same,Cumulative % of isolates inhibited at MIC 0.06 μg/mL,Candida krusei; 16 isolates,(50.0) %
same,Cumulative % of isolates inhibited at MIC 0.12 μg/mL,Candida krusei; 16 isolates,(100.0) %
same,Number of isolates inhibited at MIC 0.06 μg/mL,Candida krusei; 16 isolates,8
same,Number of isolates inhibited at MIC 0.12 μg/mL,Candida krusei; 16 isolates,8
same,MIC50,Candida krusei; Pichia kudriavzevii,0.06 µg/mL
same,MIC90,Candida krusei; Pichia kudriavzevii,0.12 µg/mL
same,MIC90,"[4]; 24 h, pH 4",0.125 µg/mL
same,MIC90,"[4]; 24 h, pH 7",0.008 µg/mL
same,MIC90,"[4]; 48 h, pH 4",0.25 µg/mL
same,MIC,"[4]; 48 h, pH 4, fluconazole-resistant isolate 1, pH 4",0.016 µg/mL
same,MIC,"[4]; 48 h, pH 4, fluconazole-resistant isolate 2, pH 4",0.016 µg/mL
same,MIC,"[4]; 48 h, pH 4, fluconazole-resistant isolate 3, pH 4",0.016 µg/mL
same,MIC,"[4]; 48 h, pH 4, fluconazole-resistant isolate 4, pH 4",0.03 µg/mL
same,MIC,"[4]; 48 h, pH 4, fluconazole-resistant isolate 5, pH 4",0.016 µg/mL
same,MIC,"[4]; 48 h, pH 4, fluconazole-resistant isolate 6, pH 4",0.03 µg/mL
same,MIC,"[4]; 48 h, pH 4, fluconazole-resistant isolate 7, pH 4",0.25 µg/mL
same,MIC,"[4]; 48 h, pH 4, fluconazole-resistant isolate 8, pH 4",0.06 µg/mL
same,MIC,"[4]; 48 h, pH 4, fluconazole-resistant isolate 9, pH 4",0.125 µg/mL
same,MIC,"[4]; 48 h, pH 4, fluconazole-resistant isolate 10, pH 4",0.06 µg/mL
same,MIC90,"[4]; 48 h, pH 7",0.03 µg/mL
same,MIC,"[4]; 48 h, pH 7, fluconazole-resistant isolate 1, pH 7",0.008 µg/mL
same,MIC,"[4]; 48 h, pH 7, fluconazole-resistant isolate 2, pH 7",0.016 µg/mL
same,MIC,"[4]; 48 h, pH 7, fluconazole-resistant isolate 3, pH 7",0.008 µg/mL
same,MIC,"[4]; 48 h, pH 7, fluconazole-resistant isolate 4, pH 7",0.008 µg/mL
same,MIC,"[4]; 48 h, pH 7, fluconazole-resistant isolate 5, pH 7",0.06 µg/mL
same,MIC,"[4]; 48 h, pH 7, fluconazole-resistant isolate 6, pH 7",0.008 µg/mL
same,MIC,"[4]; 48 h, pH 7, fluconazole-resistant isolate 7, pH 7",0.06 µg/mL
same,MIC,"[4]; 48 h, pH 7, fluconazole-resistant isolate 8, pH 7",0.008 µg/mL
same,MIC,"[4]; 48 h, pH 7, fluconazole-resistant isolate 9, pH 7",0.06 µg/mL
same,MIC,"[4]; 48 h, pH 7, fluconazole-resistant isolate 10, pH 7",0.008 µg/mL
same,Cumulative % of isolates inhibited at MIC 0.015 μg/mL,Candida albicans; 251 isolates,(74.9) %
same,Cumulative % of isolates inhibited at MIC 0.03 μg/mL,Candida albicans; 251 isolates,(100.0) %
same,Cumulative % of isolates inhibited at MIC ≤0.008 μg/mL,Candida albicans; 251 isolates,(6.8) %
same,Number of isolates inhibited at MIC 0.015 μg/mL,Candida albicans; 251 isolates,171
same,Number of isolates inhibited at MIC 0.03 μg/mL,Candida albicans; 251 isolates,63
same,Number of isolates inhibited at MIC ≤0.008 μg/mL,Candida albicans; 251 isolates,17
same,MIC50,Candida albicans; Candida albicans,0.015 µg/mL
same,MIC90,Candida albicans; Candida albicans,0.03 µg/mL
